Assay results reported in PubChem BioAssay (NCI).
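Interpolation was linear, between the two tested concentrations surrounding the appropriate level; five concentrations were tested over 48 hours in 96-well plates. TGI: total growth inhibition.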

Experiments:
Assay in all cases: DTP human tumour cell line panel, 48 h
[1] = test system: A498 renal
[2] = test system: A549 NSCLC
[3] = test system: ACHN renal
[4] = test system: BT-549 breast
[5] = test system: CAKI-1 renal
[6] = test system: CCRF-CEM leukemia
[7] = test system: COLO 205 colon
[8] = test system: DU-145 prostate
[9] = test system: EKVX NSCLC
[10] = test system: HCC-2998 colon
[11] = test system: HCT-116 colon
[12] = test system: HCT-15 colon
[13] = test system: HL-60(TB) leukemia
[14] = test system: HOP-62 NSCLC
[15] = test system: HS 578T breast
[16] = test system: HT29 colon
[17] = test system: IGROV1 ovarian
[18] = test system: K-562 leukemia
[19] = test system: KM12 colon
[20] = test system: LOX IMVI melanoma
[21] = test system: M14 melanoma
[22] = test system: MALME-3M melanoma
[23] = test system: MCF7 breast
[24] = test system: MDA-MB-231 breast
[25] = test system: MDA-MB-435
[26] = test system: MDA-N
[27] = test system: MOLT-4 leukemia
[28] = test system: NCI-H23 lung
[29] = test system: NCI-H460 lung
[30] = test system: NCI-H522 lung
[31] = test system: NCI/ADR-RES ovarian
[32] = test system: OVCAR-3 ovarian
[33] = test system: OVCAR-4 ovarian
[34] = test system: OVCAR-5 ovarian
[35] = test system: OVCAR-8 ovarian
[36] = test system: PC-3 prostate
[37] = test system: RPMI-8226 leukemia
[38] = test system: RXF 393 renal
[39] = test system: SF-268 CNS
[40] = test system: SF-295 CNS
[41] = test system: SF-539 CNS
[42] = test system: SK-MEL-2 melanoma
[43] = test system: SK-MEL-28 melanoma
[44] = test system: SK-MEL-5 melanoma
[45] = test system: SK-OV-3 ovarian
[46] = test system: SN12C renal
[47] = test system: SNB-19 CNS
[48] = test system: SNB-75 CNS
[49] = test system: SW-620 colon
[50] = test system: T-47D breast
[51] = test system: TK-10 renal
[52] = test system: U251 CNS
[53] = test system: UACC-257 melanoma
[54] = test system: UACC-62 melanoma
[55] = test system: UO-31 renal

Measured: TGI

O=C(O)c1cccc2cccc(-c3c4ccc(=O)cc-4oc4cc(O)ccc34)c12
37.2 µM: [14]
54.1 µM: [32]
> 100 µM: all other assays above
